Data from PMC5727165, “A switch in nucleotide affinity governs activation of the Src and Tec family kinases” (Scientific Reports, 2017).
“Also recorded” adds a separate entry of the source.

Columns and labels:
Assay type in all cases: binding
Src^32K [1] = biological target: T1, Src^32K (Mus musculus, UniProt P05480); test: Competition nucleotide displacement assay (Mant-ADP, fluorescence anisotropy); conditions: Src^32K (pY527); displacement of Mant-ADP
T1 construct: mouse Src^85-535 (Src^32K); GST (cleaved yes); made in house; host or cells: baculovirus-infected Sf9 insect cells, co-expressed with human Csk
Experimental: Figure 1 Autoinhibited Itk and Src kinases preferentially bind ADP. (a) Schematic of constructs evaluated in this study. Itk^32K, Src^32K, and Src^32KΔC contain the conserved module of SH3, SH2, and kinase (^32K) domains. Src^32K was truncated by […] to remove its C-terminal tail (inclusive of the Y527 phosphorylation site), generating a construct we refer to as Src^32KΔC (ΔC-tail). (b) Competition nucleotide displacement assay for Itk^32K. 40 μM Itk^32K was incubated with 40 μM Mant-ADP until equilibrium was established. Unlabelled ADP or AMPPNP was titrated into the reaction and fluorescence anisotropy monitored. Comparison of the equilibrium inhibition constants (K i) gives an indication of the relative strength of nucleotide binding. […] (c) Competition nucleotide displacement assay for Src^32K. 40 μM tail-phosphorylated Src^32K (pY527) or doubly phosphorylated Src^32K pY416 (pY527) was incubated with 40 μM Mant-ADP until equilibrium was established. Unlabelled ADP or AMPPNP was titrated into the reaction and fluorescence anisotropy monitored. Solid lines correspond to Src^32K, dashed lines to Src^32K pY416. AMPPNP binds to Src^32K with 20-fold weaker affinity than ADP. […] (d) Omit map showing clear electron density for ADP and a single magnesium ion in the nucleotide-binding pocket of Src. The magnesium is coordinated by Asn391, Asp404, and the α- and β- phosphates of ADP. The β-phosphate is directly coordinated by the guanidinium side chain of Arg388. […]
Since the concentration of ATP in the cell is typically higher than ADP[33],[34], we performed nucleotide competition assays in order to determine which nucleotide is bound in vivo. We measured the concentrations of ADP or AMPPNP required to displace Mant-ADP. […]
The binding constants for ADP and AMPPNP were determined for Src and Itk proteins by fluorescence anisotropy, using 2′/3′-Mant-labelled nucleotides (Jena Bioscience). […] Unlabelled nucleotide was titrated into the reaction and fluorescence anisotropy monitored. The equilibrium inhibition constant for the unlabelled nucleotide was calculated from the fitted curve.

Itk^32K = biological target: T2, Itk^32K (Homo sapiens, UniProt Q08881); test: Differential scanning fluorimetry (thermal stability vs nucleotide concentration); conditions: same nucleotide concentrations, vs ATP or AMPPNP
T2 construct: Human Itk^171–620 (Itk^32K); GST (cleaved yes); made in house; host or cells: baculovirus-infected Sf9 insect cells
T2 sequence (Q08881 171-620): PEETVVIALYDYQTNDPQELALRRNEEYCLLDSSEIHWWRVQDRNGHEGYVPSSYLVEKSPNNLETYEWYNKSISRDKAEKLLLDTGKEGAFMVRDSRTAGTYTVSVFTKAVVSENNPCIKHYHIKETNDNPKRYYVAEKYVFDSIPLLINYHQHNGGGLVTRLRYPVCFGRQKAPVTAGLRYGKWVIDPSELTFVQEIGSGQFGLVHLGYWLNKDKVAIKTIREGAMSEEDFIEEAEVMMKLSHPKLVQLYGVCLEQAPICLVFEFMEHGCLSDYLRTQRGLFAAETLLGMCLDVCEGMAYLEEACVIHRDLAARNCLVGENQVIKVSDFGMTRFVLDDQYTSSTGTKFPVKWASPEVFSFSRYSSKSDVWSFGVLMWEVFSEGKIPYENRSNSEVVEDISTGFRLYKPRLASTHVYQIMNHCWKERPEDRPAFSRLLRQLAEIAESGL
Experimental: (§1) We noted that the thermal stability of Src^32K initially decreases at low concentrations of ATP, before rising again at higher concentrations. This was reproducible and correlates with autophosphorylation of Tyr416 during the course of the assay (Supplementary Fig. 4h). Thermal stabilities as a function of nucleotide concentration were measured by differential scanning fluorimetry (DSF). Samples contained 0.1 mg/ml protein in 50 mM Tris pH 7.5, 150 mM NaCl, 1 mM TCEP, and 5 mM MgCl2 with ADP, ATP, or AMPPNP concentrations ranging from 0–16 mM. Samples were measured in triplicate using a BioRad iQ™5 Multicolor Real-Time PCR Detection System. For detection of phosphorylated protein, samples were diluted and 1 ng and 15 ng were loaded to SDS-PAGE for Src and Itk proteins, respectively. Phosphorylation was measured by immunoblot.

Src^32K [2] = biological target: T1, Src^32K; test: as above
Experimental: as §1

T1 sequence (P05480 85-535): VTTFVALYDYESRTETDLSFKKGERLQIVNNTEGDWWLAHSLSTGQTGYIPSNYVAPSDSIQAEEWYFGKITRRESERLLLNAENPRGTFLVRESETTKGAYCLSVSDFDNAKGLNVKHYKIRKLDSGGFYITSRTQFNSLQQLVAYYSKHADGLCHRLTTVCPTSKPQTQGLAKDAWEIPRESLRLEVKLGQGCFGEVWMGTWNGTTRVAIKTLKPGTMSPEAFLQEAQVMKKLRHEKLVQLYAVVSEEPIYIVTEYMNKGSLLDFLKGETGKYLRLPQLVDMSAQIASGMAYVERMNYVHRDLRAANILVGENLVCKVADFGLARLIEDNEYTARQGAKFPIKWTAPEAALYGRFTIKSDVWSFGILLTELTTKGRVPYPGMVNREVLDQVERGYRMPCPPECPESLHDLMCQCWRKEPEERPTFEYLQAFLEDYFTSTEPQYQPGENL

## Nc1ncnc2c1ncn2[C@@H]1O[C@H](COP(=O)(O)OP(=O)(O)O)[C@@H](O)[C@H]1O [ADP]
Src^32K [1]
  fold difference in Ki, ADP preferred over AMPPNP: 19 fold
Itk^32K
  thermal stabilisation compared with other nucleotides: to a greater extent; also recorded: higher thermal stability
Src^32K [2]; Src^32K pY416, vs ATP
  thermal stabilisation compared with other nucleotides: higher thermal stability with ADP than ATP
Src^32K [2]; Src^32K, same nucleotide concentrations, vs ATP or AMPPNP
  thermal stabilisation compared with other nucleotides: to a greater extent; also recorded: higher thermal stability
